PubChem BioAssay AID330 (DTP/NCI, 2004)
Inconclusive results and toxic doses are left out. Rule for the calls: active = survival T/C of 150% or more; inactive = T/C below 125% in these data.

Test system: P388 leukemia ip, CD2F1 mice, survival T/C
Assay: NCI In Vivo Anticancer Drug Screen. Data for tumor model P388 Leukemia (intraperitoneal) in CD2F1 (CDF1) mice
Settings: endpoint: median survival time, schedule: Q01DX009 (ip), vehicle: suspension in saline, higher = longer survival
Method in brief: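 Mice carrying the transplanted tumor received test compound or vehicle. Survival was recorded in each group, and the value is the treated-group measurement divided by that of the vehicle-treated control group.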

Measured: T/C

Cc1ccc(NC(=S)SCc2ccc3c(c2)OCO3)cc1Cl
inactive: dose: 50.0 mg/kg/injection 106 % of control | dose: 100.0 mg/kg/injection 94 % of control | dose: 200.0 mg/kg/injection 102 % of control
